Data set [1] can be described thus: Acute toxicity in mice (oral). The arrangement: species or system mouse (ICR). Conditions: in vivo, mouse, mortality during 14 days. The text has this: (§1) Acute toxicity of 3,4-dihydro-2,8-diisopropyl-3-thioxo-2H-1,4-benzoxazine-4-acetic acid was examined in mice and rats.
(§2) The various doses of the test compound suspended in 5% gum arabic solution were orally administered to male ICR mice (4 weeks old) and male Wistar rats (5 weeks old), and then mortality was observed during 14 days. Each group consisted of 5 animals.

The subject of data set [2] is sorbitol accumulation in sciatic nerves of streptozocin diabetic rats. The experiment in a line: Inhibition of sorbitol accumulation in the tissue of experimentally induced diabetic rat. Conditions: 30 mg/kg orally twice a day for 2 days; sciatic nerve; untreated control group = 100. The class given is in vivo, rat (Spraque-Dawley). On the procedure:
Spraque-Dawley rats (male, 5-7-week-old, 5 animals per group) were fasted for 18 hours, and received injection of 70 mg/kg of streptozocin (Cal Biochem Co.) into the caudal vein under anesthesia with ether, so that diabetic rats were obtained. From immediately after the injection of streptozocin these rats were given orally the test compound of 50 mg/kg or 30 mg/kg in the form of 5% gum arabic suspension twice a day (at 10 a.m. and 5 p.m.) for 2 days. During this period the rats were allowed to take CE-2 diet (Clea Japan, Inc.) and water ad libitum. In the morning on the 3rd day (9 a.m.) the rats were killed (decapitation and venesection), and immediately the sciatic nerves were isolated, from which sorbitol was extracted according to the method of M. J. Peterson et al. described in Metabolism, 28, 456 (1979) and the sorbitol level was determined by the enzymatic method of P.S. Clements et al. in Science, 166, 1007 (1969).

The nature of data set [3]: Acute toxicity in rats (oral). The arrangement: species or system rat (Wistar). The note with it: in vivo, rat, mortality during 14 days.
Excerpt: as §1, §2

Data set [4] addresses T1, aldose reductase from human placenta (Homo sapiens, UniProt P15121).
T1 construct: Partially purified aldose reductase from human placenta; from tissue; host or cells: human placenta
The experiment in a line: Aldose reductase inhibition (in vitro study). The class given is biochemical. The text has this: 1. Aldose reductase inhibition (in vitro study)
Partially purified aldose reductase from human placenta was used for the test of aldose reductase inhibitory effect according to the method of S. Hayman et al. described in Journal of Biological Chemistry, 240, 877 (1965) or the method of J. H. Kinoshita et al. described in Metabolism, 28, Supplement 1, 462 (1979).

In the next data set the test system is washed rat platelets. The experiment in a line: Inhibitory action on platelet aggregation (washed rat platelets). The class given is cell-based, rat (Spraque-Dawley). Conditions: for inhibition at 300 µM: 3 × 10^-4 M; for inhibition at 100 µM: 10^-4 M. On the procedure:
3. Inhibitory action on platelet aggregation
Effect of 3,4-dihydro-2,8-diisopropyl-3-thioxo-2H-1,4-benzoxazine-4-acetic acid on platelet aggregation was examined using washed rat platelets.
Platelet rich plasma (PRP) was prepared by centrifuging the blood at 150 xg for 15 min at room temperature. To prepare washed platelets, the PRP was centrifuged at 1500 xg for 10 min and the precipitated platelets were resuspended in Tyrode's solution. The number of platelets used was 7×10^5 cells/mm^3. Platelet aggregation was measured by the turbidmetric method using an aggregometer (Nikko Bioscience, Model PAR-4M, Tokyo). The test compound dissolved in 10 μl of water was added to 250 μl of washed platelet suspension and incubated at 37° C. for 3 min before 10 μl of aggregating agents ([…] of collagen, Nikko Bioscience or 10 μM of ADP, Shigma, St. Louis, Mo., at the final concentration) was added.

Setting [5] is: Rattus norvegicus, Platelet, inducer ADP, Mean ± SD (N = 3), read-out: percent inhibition of aggregation.
[6] abbreviates: Rattus norvegicus, Platelet, inducer collagen, Mean ± SD (N = 3), read-out: percent inhibition of aggregation.

Read-outs that look alike come from different tables or passages of the source.

Take `CC(C)c1cccc2c1OC(C(C)C)C(=S)N2CC(=O)O` (stereo not shown) [Example 8, 3,4-dihydro-2,8-diisopropyl-3-thioxo-2H-1,4-benzoxazine-4-acetic acid]: the LD50 – broadly, the dose expected to kill half of the subjects tested – at 336 h in data set [1] amounted to 1880 mg/kg; in data set [3], 2830 mg/kg. In data set [2], this compound showed a sorbitol accumulation of 30%. 1 µM produced 50.2% inhibition in data set [4] (10^-6 M). Besides, at 0.1 µM the inhibition in data set [4] (10^-7 M) was 9.1%. In the data set on washed rat platelets (ADP-induced aggregation), the “inhibitory action compared with indomethacin (in words)” value is “more potent than that of indomethacin”. The inhibition (as a rule, how much of the control response was suppressed) at 300 µM in the data set with washed rat platelets (setting [5]) was determined as 42 ± 7.1%; in the data set on washed rat platelets (setting [6]), 24.1 ± 3.4%. Moreover, the results for the inhibition at 100 µM in the data set with washed rat platelets (setting [5]) and in the data set on washed rat platelets (setting [6]) were 90 ± 6% and 31.8 ± 0.9%, respectively. In addition, the inhibition at 30 µM in the data set on washed rat platelets (Rattus norvegicus, Platelet, inducer collagen, 3 × 10^-5 M, Mean ± SD (N = 3), read-out: percent inhibition of aggregation) stood at 74.5 ± 5.5%. Also, the inhibition at 60 µM with washed rat platelets (Rattus norvegicus, Platelet, inducer collagen, 6 × 10^-5 M, Mean ± SD (N = 3), read-out: percent inhibition of aggregation) amounted to 46.5 ± 1.3%. In the data set with washed rat platelets (induced by either collagen or ADP), the “inhibition of aggregation of washed platelets (in words)” value is “inhibited aggregation of washed platelets induced by either collagen or ADP in a dose related manner”.

These data come from US4771050A, “Thiolactam-n-acetic acid derivatives” (Takeda Chemical Industries, Ltd., priority 1986, dated 1988).
